Where two headings read alike, the source gives them in different places.
How the values were obtained:
BTK = BTK (Homo sapiens, UniProt Q06187); experiment: BTK-GFP degradation by flow cytometry in TMD8 BTK-GFP/mCh cells; type: cell-based; design: performed with full-length BTK and endogenous DCAF1; expressed in transfected cells; host or cells: TMD8 cells, lentiviral, blasticidin-selected (TMD8 BTK-GFP/mCh); details: for max. BTK degradation (%) / DC50: 24 h
Protocol: The bicistronic pLenti6 BTK-GFP-chysel-mCHERRY expression vector was cloned as described[92] using Gateway cloning with a pENTR-BTK plasmid lacking a STOP codon. TMD8 cells were then infected with lentiviral particles from this vector as described above and stably transfected cells were selected with blasticidin at a concentration of 10 μg/mL referred to as TMD8 BTK-GFP/mCh cells.
(§1) For flow cytometry measurements, 25,000 exponentially growing TMD8 BTK-GFP/mCh cells were plated in 100 μL of each well of a 96-well plate and grown for 24 h. Cells were then dosed with corresponding compounds and doses from 10 mM DMSO stock for 24 h, after which GFP and mCherry fluorescence was read with a Beckmann Coulter Cytoflex. For competition experiment, both compounds were added at the same time and dosed for 24 h. Cells were gated based on Forward & Side Scatter and selection for Single cells using SSC-A vs. SSC-H. Further, the population of viable cells was defined by the forward & side-scatter characteristics of DMSO-treated cells. To confirm cells outside of this population as non-viable, cells were plated and treated for 24 h, washed with PBS and stained for 30 min with two markers of early (Annexin-V) and late (LIVE/DEAD) apoptosis. Effects on viability were measured by the reduction of the percentage of cells included in this viable-population gate with increasing doses of compound tested. Degradation of BTK was calculated based on subtracting background (BG) fluorescence of parental TMD8 signal via (GFP-BG)/(mCherry-BG) of viable cells. Median ratios of three technical (different wells) replicates were used to calculate daily averages. Each compound dose–response was generated via three biological replicates (different days of experiment). Degradation curve parameters (DC50 & Abs. DC50 & max. Deg) were extracted using GraphPad Prism’s 4-parameter logistic curve fitting.

[1] = Viability by FSC/SSC gate (flow cytometry) in TMD8 BTK-GFP/mCh cells; type: cell-based, human; details: human, TMD8 BTK-GFP/mCh cells, TMD8 BTK-GFP/mCh, 24 h
Protocol: as §1, with “To confirm cells outside of this population as non-viable, cells were plated and treated for 24 h, washed with PBS and stained for 30 min with two markers of early (Annexin-V) and late (LIVE/DEAD) apoptosis.” left out
The viability window was determined by measuring the GI50 of viability based on the percentage of cells included in the viable gate and comparing it to the DC50 of degradation. The fold-change difference describing this window is [GI50 Viability / DC50 Degradation], where values above 1 indicate a positive (lower DC50 degradation than AC50 viability) window.

DCAF1(WDR) [2] = target: T1, DCAF1(WDR) (Homo sapiens, UniProt Q9Y4B6, E1398S); experiment: DCAF1 TR-FRET competition assay, standard binary format; type: binding
T1 construct: His6 (C); made in house; host or cells: Sf9 insect cells (baculovirus), co-expressed with BirA
T1 sequence (Q9Y4B6 1073-1399 E1398S): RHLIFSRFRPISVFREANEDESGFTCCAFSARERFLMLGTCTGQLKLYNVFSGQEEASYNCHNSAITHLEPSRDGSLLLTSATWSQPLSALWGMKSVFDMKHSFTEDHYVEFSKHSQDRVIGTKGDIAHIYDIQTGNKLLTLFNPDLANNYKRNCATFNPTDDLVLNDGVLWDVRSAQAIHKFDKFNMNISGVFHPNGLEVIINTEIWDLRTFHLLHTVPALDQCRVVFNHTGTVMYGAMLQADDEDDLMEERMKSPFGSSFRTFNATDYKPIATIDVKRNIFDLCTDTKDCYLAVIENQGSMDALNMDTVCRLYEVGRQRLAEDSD
Protocol: Competition assay conditions consist of 20 µL total volume in white 384-well plates (Greiner), in 30 mM phosphate buffer pH 7.4 containing 140 mM NaCl, 0.01% Tween20, 1 mM TCEP and 1% final DMSO. Tested compounds at 14 different concentrations were pre-incubated at 22 °C for 30 min with a large excess of 10 µM human BTK (G389-S659) or 10 µM human BRD9-BD(130-250) in the cooperative assay or with buffer in standard binary assay. […] Samples were then incubated at 22 °C for 30 min before reading using a Tecan infinite M-1000 or PheraStar FSX (excitation 340 nm, emission 490 and 520 nm). DCAF1 protein was omitted in the negative control. IC50 fitting was carried out using an in-house developed software (Novartis Helios software application, unpublished, a publicly available alternative would be e.g., Graphpad Prism) using the methods described by Fomenko et al.[93] (regression algorithms for nonlinear dose-response curve fitting). Following normalization of activity values for the wells to % inhibition (% inhibition = [(high control-sample)/(high control-low control)] × 100). Data analysis could also be carried out using GraphPad Prism without prior normalization. The reported IC50 values are the average of at least two independent experiments.

DCAF1(WDR) [3] = target: T1, DCAF1(WDR); experiment: SPR, surface immobilized DCAF1(WDR), binary compound binding
[4] = TMD8 BTK-GFP/mCh, read-out: DC50 BTK-Degradation
[5] = Fig. 6b, read-out: DC50 BTK degradation (24h)
[6] = TMD8 BTK-GFP/mCh, read-out: Absolute DC50 BTK-Degradation
[7] = ± SD (n), read-out: IC50 DCAF1 TR-FRET
[8] = Fig. 6b, SPR, read-out: KD DCAF1

Sequence of BTK (Q06187 2-659 limits assumed): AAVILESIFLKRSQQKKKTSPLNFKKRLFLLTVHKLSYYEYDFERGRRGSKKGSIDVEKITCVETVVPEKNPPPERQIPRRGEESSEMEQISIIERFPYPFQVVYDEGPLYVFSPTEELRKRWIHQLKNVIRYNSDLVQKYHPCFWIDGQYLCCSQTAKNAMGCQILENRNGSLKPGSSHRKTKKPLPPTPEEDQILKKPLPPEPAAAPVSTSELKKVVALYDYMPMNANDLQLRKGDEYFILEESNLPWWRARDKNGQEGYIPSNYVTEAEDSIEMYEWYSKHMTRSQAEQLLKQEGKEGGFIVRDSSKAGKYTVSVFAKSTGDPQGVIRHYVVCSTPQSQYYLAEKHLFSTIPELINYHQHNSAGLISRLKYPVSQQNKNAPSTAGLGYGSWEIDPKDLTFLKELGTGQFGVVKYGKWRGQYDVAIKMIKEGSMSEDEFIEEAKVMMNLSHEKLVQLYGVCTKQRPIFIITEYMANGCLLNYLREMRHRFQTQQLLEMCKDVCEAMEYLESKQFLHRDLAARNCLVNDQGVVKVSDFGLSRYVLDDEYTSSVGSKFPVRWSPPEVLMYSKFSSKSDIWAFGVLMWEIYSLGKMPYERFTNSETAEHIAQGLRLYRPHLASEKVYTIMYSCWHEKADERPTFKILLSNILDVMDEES

CC(=O)N1CCN(c2ccc3c(NCCN)nc(C4(c5ccc(Cl)cc5)CCCCC4)nc3c2)CC1 [compound 13]
max. BTK degradation (%) (BTK; TMD8 BTK-GFP/mCh): 0% | DC50 (BTK; [4]): > 25000 nM | GI50 at 24 h ([1]; read-out: Abs GI50): 5220 nM | GI50 at 24 h ([1]; read-out: GI50): 5040 nM

Cc1c(NC(=O)c2ccc(C(C)(C)O)cc2F)cc(F)cc1-c1ncnc2[nH]c(-c3ccc(CNCCOCCOCCOCCOCCOCCOCCOCCOCCOCCOCCOCCOCCC(=O)N4CCN(c5ccc6c(NCCN)nc(C7(c8ccc(Cl)cc8)CCCCC7)nc6c5)CC4)cc3)cc12 [DBt-5]
max. BTK degradation (24h, %) (BTK; Fig. 6b): 100% | DC50 (BTK; [5]): 50 nM | max. BTK degradation (%) (BTK; TMD8 BTK-GFP/mCh): 100% | DC50 (BTK; [6]): 50 nM | DC50 (BTK; [4]): 50 nM | GI50 at 24 h ([1]; read-out: Abs GI50): 4120 nM | GI50 at 24 h ([1]; read-out: GI50): 4240 nM | IC50 (DCAF1(WDR) [2]; [7]): 23 ± 5 nM | Kd (DCAF1(WDR) [3]; [8]): 90 nM

Cc1nc(Nc2ncc(C(=O)Nc3c(C)cccc3Cl)s2)cc(N2CCC(OC3CCN(CCCCCCCC(=O)N4CCN(c5ccc6c(NCCN)nc(C7(c8ccc(Cl)cc8)CCCCC7)nc6c5)CC4)CC3)CC2)n1 [DDa-1]
DC50 (BTK; [6]): 146 nM | DC50 (BTK; [4]): 91.3 nM | DC50 (BTK; TMD8 BTK-GFP/mCh, read-out: DC50 BTK-GFP degradation): 90 nM | GI50 at 24 h ([1]; read-out: Abs GI50): 1200 nM | GI50 at 24 h ([1]; read-out: GI50 viability): 1200 nM

Cc1c(NC(=O)N2CC(O)(CC(C)(C)C)C2)cc(F)cc1-c1ncnc2[nH]c(-c3cnn(CC(=O)N4CCC5(CC4)CN(CCNC(=O)CCCC(=O)N4CCN(c6ccc7c(NCCN)nc(C8(c9ccc(Cl)cc9)CCCCC8)nc7c6)CC4)CCO5)c3)cc12 [DBt-10]
max. BTK degradation (24h, %) (BTK; Fig. 6b): 94% | DC50 (BTK; [5]): 137 nM | max. BTK degradation (%) (BTK; TMD8 BTK-GFP/mCh): 94% | DC50 (BTK; [6]): 149 nM | DC50 (BTK; [4]): 137 nM | GI50 at 24 h ([1]; read-out: GI50): > 25000 nM | IC50 (DCAF1(WDR) [2]; [7]): 134 ± 68 nM | Kd (DCAF1(WDR) [3]; [8]): 147 nM

COc1cc(-c2cn(C)c(=O)c3cnccc23)c(OC)cc1CN1CCC(OCCCCCC(=O)N2CCN(c3ccc4c(NCCN)nc(C5(c6ccc(Cl)cc6)CCCCC5)nc4c3)CC2)CC1 [DBr-1]
IC50 (DCAF1(WDR) [2]; binary, compound alone, spread in brackets, read-out: TR-FRET Q. IC50): 38 nM | Kd (DCAF1(WDR) [3]; binary, compound alone, spread in brackets, read-out: SPR KD): 13 nM
